Assay: Comparative ex vivo study of the percutaneous absorption of amitriptyline (Frantz cell)
Type: in vitro ADME
Details: ex vivo human skin, topical application
Method: Comparative ex vivo study of the percutaneous absorption of amitriptyline in a formulation A in aqueous gel form (invention) and in a formulation B in cream form (comparative).
Each of compositions A and B was applied on separate human skin samples. For each composition, the experiment was repeated 3 times with 3 skin samples from 3 different donors, i.e., 9 samples.
The skin samples are mounted in a Frantz cell and are heated to a surface temperature of 32° C.±1° C.
Composition A or B is spread evenly using a spatula on each skin sample at a rate of 10 mg per cell, corresponding to 5 mg/cm^2 of skin.
The skin samples are rinsed 16 hours after application.
Each skin sample was placed with a tweezers on a paper towel (dermis facing downward).
The stratum corneum is removed using adhesive strips.
After removing the stratum corneum, the sample is perforated. The epidermis is then separated from the dermis. Each of them is placed in separate bottles.
The different samples were then extracted.

SMILES: CN(C)CCC=C1c2ccccc2CCc2ccccc21 [amitriptyline, Amitriptyline]
- systemic passage of amitriptyline: less than 0.1 % of the administered dose

Reference: patent US20230103300A1, “TOPICAL PHARMACEUTICAL COMPOSITION IN GEL FORM COMPRISING AT LEAST AMI[…] USE IN THE TREATMENT OF CORONAVIRUS-INDUCED NEUROPATHIC PAIN” (AlgoTherapeutix, priority 2021, published 2023)
